Like-named read-outs stand apart in the source and are kept apart here.
What was measured:
Type in all cases: in vivo
[1] = IRX4204 content in the brain by LC/MS/MS; conditions: male, SD, oral, rat, 7 days repeated dosing 10 mg/kg/day gavage, one hour after the last dose
Procedure: (§1) Male SD rats underwent daily gavage with 10mg/kg/day for seven days. One hour after the last dose, rats were anesthetized with ketamine/xylazine and transcardially perfused with cold saline. Brains were isolated and homogenized with two volumes of phosphate buffer using ultrasonication. A 100μl sample of the homogenate was transferred to a 1.7ml centrifuge tube and mixed with 20μl of internal standard (100ng/ml of 13-cis retinoic acid-d5 in diluent). Then the sample was deproteinized with 300μl of acetonitrile, centrifuged, and the supernatant was transferred to an autosampler vial for analysis by LC/MS/MS. The calibration standards and the internal standard (13-cis retinoic acid-d5) were diluted in acetonitrile:butylatedhydroxyanisole:ethoxyquin:triethylamine (100:0.05:0.02:0.1, v/w/v/v).
(§2) The LC/MS system was comprised of Waters Acquity Ultra Performance Liquid Chromatography (UPLC) coupled to a XEVO-TQS (Waters). The samples were analyzed by reverse-phase HPLC using a Waters Atlantis T3 column (150 × 2.1mm, 5um). The mobile phase was nebulized using heated nitrogen in a Z-spray source/interface set to electrospray negative ionization mode. The ionized compounds were detected using MS/MS. […] The detection was linear between 2.5nM to 10nM.

[2] = test system: Nurr1 downstream genes in the SN; experiment: Expression of Nurr1 downstream genes in the substantia nigra after oral treatment; conditions: rat, 7 days oral 10 mg/kg/day
Procedure: as §1
Total RNA from VMB neurons or rat substantia nigra were isolated using the RNeasy Mini Kit from Qiagen (Valencia, CA) and 1μg of total RNA was reverse transcribed using SuperScript III first-strand synthesis supermix for qRT-PCR from Invitrogen (Carlsbad, CA) according to the manufacturer's instruction. Quantitative RT-PCR was performed using Maxima SYBR Green master mix (Fermentas) in ABI Prism 7900HT in four replicates with primers amplifying the target genes. Expression level of actin was used as an internal control. Data were normalized using the 2^−ΔΔCt method. Levels of target gene mRNAs were expressed relative to those in vehicle control groups and plotted in GraphPad Prism.

[3] = Plasma pharmacokinetics after oral gavage; conditions: SD, rat
Procedure: […] Rats were treated with the designated dose by daily gavage. Acute plasma PK was conducted on day one and acute-on-chronic plasma PK was conducted on day 24. Pharmacokinetic assessment was conducted by collecting of blood at baseline (prior gavage), 0.25, 0.5, 1, 2, 4, 8, 12 and 24h post gavage. […] The spiked plasma was dialyzed at 37°C against an isotonic sodium phosphate buffer to achieve equilibrium. At the end of dialysis, the plasma and buffer level of IRX4204 were quantified by LC/MS/MS.
as §2

[4] = female, 1 mg/kg/day, 1mg/kg/day gavage, Week 4
[5] = female, 1 mg/kg/day, Female, 1mg/kg/day gavage, Day 1
[6] = female, 3 mg/kg/day, 3mg/kg/day gavage, Week 4
[7] = female, 3 mg/kg/day, Female, 3mg/kg/day gavage, Day 1
[8] = female, 10 mg/kg/day, 10 mg/kg/day gavage, Week 4
[9] = female, 10 mg/kg/day, Female, 10 mg/kg/day gavage, Day 1
[10] = male, 1 mg/kg/day, 1mg/kg/day gavage, Week 4
[11] = male, 1 mg/kg/day, Male, 1mg/kg/day gavage, Day 1
[12] = male, 3 mg/kg/day, 3mg/kg/day gavage, Week 4
[13] = male, 3 mg/kg/day, Male, 3mg/kg/day gavage, Day 1
[14] = male, 10 mg/kg/day, 10 mg/kg/day gavage, Week 4
[15] = male, 10 mg/kg/day, Male, 10 mg/kg/day gavage, Day 1

concentration at 1 h [1]: 11.5 ± 2.9 nM
Cmax [3, 4]: 43.4 ng/mL
Tmax [3, 4]: 15 min
Cmax [3, 5]: 120 ng/mL
Tmax [3, 5]: 30 min
AUC(0-t) ([3]; female, 1 mg/kg/day, Female, 1mg/kg/day gavage, Day 1, read-out: AUC0-24): 251 ng·h/mL
AUC(0-t) ([3]; female, 1 mg/kg/day, Female, 1mg/kg/day gavage, Week 4, read-out: AUC0-24): 136 ng·h/mL
Cmax [3, 6]: 101 ng/mL
Tmax [3, 6]: 60 min
Cmax [3, 7]: 362 ng/mL
Tmax [3, 7]: 30 min
AUC(0-t) ([3]; female, 3 mg/kg/day, Female, 3mg/kg/day gavage, Day 1, read-out: AUC0-24): 975 ng·h/mL
AUC(0-t) ([3]; female, 3 mg/kg/day, Female, 3mg/kg/day gavage, Week 4, read-out: AUC0-24): 344 ng·h/mL
Cmax [3, 8]: 667 ng/mL
Tmax [3, 8]: 15 min
Cmax [3, 9]: 974 ng/mL
Tmax [3, 9]: 30 min
AUC(0-t) ([3]; female, 10 mg/kg/day, Female, 10 mg/kg/day gavage, Day 1, read-out: AUC0-24): 2440 ng·h/mL
AUC(0-t) ([3]; female, 10 mg/kg/day, Female, 10 mg/kg/day gavage, Week 4, read-out: AUC0-24): 940 ng·h/mL
Cmax [3, 10]: 25.7 ng/mL
Tmax [3, 10]: 15 min
Cmax [3, 11]: 58.9 ng/mL
Tmax [3, 11]: 30 min
AUC(0-t) ([3]; male, 1 mg/kg/day, Male, 1mg/kg/day gavage, Day 1, read-out: AUC0-24): 140 ng·h/mL
AUC(0-t) ([3]; male, 1 mg/kg/day, Male, 1mg/kg/day gavage, Week 4, read-out: AUC0-24): 27.5 ng·h/mL
Cmax [3, 12]: 54.5 ng/mL
Tmax [3, 12]: 30 min
Cmax [3, 13]: 198 ng/mL
Tmax [3, 13]: 30 min
AUC(0-t) ([3]; male, 3 mg/kg/day, Male, 3mg/kg/day gavage, Day 1, read-out: AUC0-24): 484 ng·h/mL
AUC(0-t) ([3]; male, 3 mg/kg/day, Male, 3mg/kg/day gavage, Week 4, read-out: AUC0-24): 280 ng·h/mL
Cmax [3, 14]: 77.2 ng/mL
Tmax [3, 14]: 15 min
Cmax [3, 15]: 542 ng/mL
Tmax [3, 15]: 15 min
AUC(0-t) ([3]; male, 10 mg/kg/day, Male, 10 mg/kg/day gavage, Day 1, read-out: AUC0-24): 1490 ng·h/mL
AUC(0-t) ([3]; male, 10 mg/kg/day, Male, 10 mg/kg/day gavage, Week 4, read-out: AUC0-24): 422 ng·h/mL
SMILES: CC(/C=C/[C@@H]1C[C@]1(C)c1ccc2c(c1)C(C)(C)CCC2(C)C)=C\C(=O)O [IRX4204]
DAT mRNA level in the SN [2]: significantly increased
DDC mRNA level in the SN [2]: significantly increased
DJ-1(PARK7) mRNA level in the SN [2]: significantly increased
GRFα1 mRNA level in the SN [2]: significantly increased
Pitx3 mRNA level in the SN [2]: significantly increased
TH mRNA level in the SN [2]: significantly increased
VMAT-2 (VMAT2) mRNA expression in the SN ([2]; did not reach statistical significance): trend towards an increase

From publication PMC4884932, “Selective brain penetrable Nurr1 transactivator for treating Parkinson's disease” (Oncotarget, 2016)
